Target: T1, 11β-HSD1 (Homo sapiens, UniProt P28845)
T1 construct: Human liver microsomes were used as a source of 11β-HSD1 enzyme; tissue XenoTech Lot No. 1410013; host or cells: pooled human liver microsomes, mixed gender
Assay: Inhibition of 11β-HSD1 (cortisone to cortisol, human liver microsomes, cortisol ELISA)
Assay type: biochemical
Conditions: 10 µM, 2.5 h, 37 °C
Protocol: The resulting solution with a final volume of 100 µL was incubated for 2.5 h at 37 °C. To stop the reaction, 10 µL of a 100 µM solution of 18β-glycyrrhetinic acid in PBS was added. The level of cortisol obtained in the reaction was measured by commercially available ELISA kit.
As a control, analogous tests without the addition of inhibitors were used. Half the inhibitory concentration (causing 50% reduction of cortisol or cortisone) was read from the chart.

T1 sequence (P28845 whole entry): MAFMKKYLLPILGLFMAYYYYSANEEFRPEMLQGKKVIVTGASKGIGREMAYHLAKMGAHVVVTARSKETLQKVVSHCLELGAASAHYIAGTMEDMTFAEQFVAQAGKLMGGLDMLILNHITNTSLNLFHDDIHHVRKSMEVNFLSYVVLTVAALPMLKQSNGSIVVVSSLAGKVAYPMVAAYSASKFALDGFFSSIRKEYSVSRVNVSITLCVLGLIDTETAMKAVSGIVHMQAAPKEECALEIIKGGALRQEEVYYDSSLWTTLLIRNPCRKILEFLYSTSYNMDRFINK

CC1(C)[C@@H](OC(=O)CCC(=O)O)CC[C@]2(C)[C@H]3C(=O)C=C4[C@@H]5C[C@@](C)(C(=O)O)CC[C@]5(C)CC[C@@]4(C)[C@]3(C)CC[C@@H]12 [carbenoxolone, reference compound]
inhibition at 10 µM: 90.4 ± 1.86%
